Measurements reported in patent publication US11219619B2, “Therapeutic agent for hepatocellular carcinoma” (Eisai R&D Management Co., Ltd., priority 2018, dated 2022).

Legend:
SNU-398 = test: Proliferation of hepatocellular carcinoma cell line SNU-398 (CellTiter Glo-2.0); assay type: cell-based; settings: Homo sapiens, 144 h; SNU-398, cultured for 6 days, 10% FBS
Method: (§1) As the human hepatocellular carcinoma cell line, SNU-398, Li-7, Hep3B2.1-7, and HuH-7 were used. In this regard, SNU-398, and Hep3B2.1-7 were obtained from American Type Culture Collection (ATCC), Li-7 was obtained from Cell Resource Center for Biomedical Research, Institute of Development, Aging and Cancer, Tohoku University, and HuH-7 was obtained from JCRB Cell Bank, respectively.
(§2) For each cell line, maintenance culture was performed by using the following medium.
(§3) An RPMI-1640 medium (Wako Pure Chemical Industries, Ltd.) containing 10% fetal bovine serum (FBS) and penicillin/streptomycin […]
(§4) The number of cells in each well after the culture was calculated by measuring the intracellular ATP level with the emission intensity using CellTiter Glo-2.0 (Promega Corporation, catalog number: G9243).
(§5) CellTiter Glo-2.0 was added in an amount of 50 μL into each well, and the mixture was mixed for 10 minutes with a plate mixer. After that, the mixture was allowed to react at room temperature for 10 minutes, and then the luminescence was measured with Multilabel Reader (ARVO X4, PerkinElmer, Inc.) The luminescence value ratio in the presence of a compound A was determined, assuming that the luminescence value in a case where Compound A had not added was set to 100% and the luminescence value in a well where cells had not been present was set to 0%. […]

Hep3B2.1-7 = test: Proliferation of hepatocellular carcinoma cell line Hep3B2.1-7 (CellTiter Glo-2.0); assay type: cell-based; settings: Homo sapiens, 144 h; Hep3B2.1-7, cultured for 6 days, 10% FBS
Method: as §1, §2
An EMEM medium (Wako Pure Chemical Industries, Ltd.) containing 10% FBS and penicillin/streptomycin […]
as §4, §5

HuH-7 = test: Proliferation of hepatocellular carcinoma cell line HuH-7 (CellTiter Glo-2.0); assay type: cell-based; settings: Homo sapiens, 144 h; HuH-7, cultured for 6 days, 10% FBS
Method: as §1, §2
A DMEM-low glucose medium (Wako Pure Chemical Industries, Ltd.) containing 10% FBS and penicillin/streptomycin […]
as §4, §5

Li-7 = test: Proliferation of hepatocellular carcinoma cell line Li-7 (CellTiter Glo-2.0); assay type: cell-based; settings: Homo sapiens, 144 h; Li-7, cultured for 6 days, 10% FBS
Method: as §1, §2, §3, §4, §5

[1] = system: Human-derived hepatocellular carcinoma cell line HuH-7; test: Antitumor action against human hepatocellular carcinoma cell line HuH-7 transplanted subcutaneously in nude mice; assay type: in vivo; settings: HuH-7 xenograft
Method: (§6) Five nude mice (CAnN.Cg-Foxnlnu/CrlCrlj, female, CHARLES RIVER LABORATORIES JAPAN, INC.) were used in each group, and the antitumor effect in a case where compound A was administered was evaluated.
(§7) Human-derived hepatocellular carcinoma cell line HuH-7 (obtained from JCRB Cell Bank) cells were suspended in a DMEM medium (Wako Pure Chemical Industries, Ltd.) containing 10% bovine serum so that the concentration of the cells was 8.0×10^7 cells/mL. Into the suspension, Matrigel™ Matrix (Becton, Dickinson and Company, Japan) in the same volume as that of the suspension was added, and the obtained mixture was sufficiently mixed. The mixture in an amount of 0.1 mL was transplanted into the subcutaneous part in the right flank of each mouse, and the mouse was subjected to the antitumor effect evaluation.
(§8) On 11 days after the transplantation, the longest diameter and the short axis of the tumor were measured with an electronic digital caliper (Digimatic™ Caliper, Mitutoyo Corporation). The mice were divided into groups so that the average values of the tumor volumes in the respective groups were nearly equal to each other. In addition, the tumor volume was calculated in accordance with the following equation. Tumor volume (mm^3)=longest diameter (mm)×short axis (mm)×short axis (mm)/2
Compound A was dissolved in purified water so that the concentration of compound A was 2.5 mg/mL.
(§9) Compound A was administered to each of the mice in the respective groups at a dose of 50 mg/kg once daily for 5 days. After that, compound A was withdrawn for 2 days, and then administered orally for 3 days. In this regard, the volume to be administered was set to 20 mL/kg, and to the control group, purified water in the same volume was administered.

[2] = system: Human-derived hepatocellular carcinoma cell line Hep3B2.1-7; test: Antitumor action against human hepatocellular carcinoma cell line Hep3B2.1-7 transplanted subcutaneously in nude mice; assay type: in vivo; settings: Hep3B2.1-7 xenograft
Method: as §6
as §7, with “Hep3B2.1-7” for “HuH-7”, “ATCC)” for “JCRB Cell Bank)”, “Hank's Balanced Salt Solution (HBSS)” for “DMEM medium (Wako Pure Chemical Industries, Ltd.) containing 10% bovine serum”, “4×10^7” for “8.0×10^7”
as §8, with “19” for “11”, “substantially” for “nearly”
Compound A was dissolved in purified water so that the concentration of compound A was 5 mg/mL.
as §9, with “100” for “50”, “4” for “3”

[3] = system: Human-derived hepatocellular carcinoma cell line SNU-398; test: Antitumor action against human hepatocellular carcinoma cell line SNU-398 transplanted subcutaneously in nude mice; assay type: in vivo; settings: SNU-398 xenograft
Method: as §6
as §7, with “SNU-398” for “HuH-7”, “ATCC)” for “JCRB Cell Bank)”, “HBSS” for “DMEM medium (Wako Pure Chemical Industries, Ltd.) containing 10% bovine serum”, “5×10^7” for “8.0×10^7”
as §8, with “9” for “11”
Compound A was dissolved in purified water so that the concentration of compound A was […] or 2.5 mg/mL.
Compound A was administered orally to each of the mice in the respective groups at a dose of 25 mg/kg or 50 mg/kg once daily for 11 days. In this regard, the volume to be administered was set to 20 mL/kg. The control group was untreated.

[4] = Day 0 (baseline), 50 mg/kg group

- IC50 (SNU-398): 26 nM
- IC50 (Hep3B2.1-7): 77 nM
- IC50 (HuH-7): 249 nM
- IC50 (Li-7): 63 nM
Compound: CNC(=O)n1ccc2cc(Oc3ccnc(NC(=O)c4ccc(C5CCN(CCO)CC5)cc4)c3)c(OCCOC)cc21 [Compound A, 5-((2-(4-(1-(2-hydroxyethyl)piperidin-4-yl)benzamide)pyridin-4-yl)oxy)-6-(2-methoxyethoxy)-N-methyl-1H-indole-1-carboxamide sesquisuccinate]
- Tumor volume [1, 4]: 148.1 mm^3
- Tumor volume ([1]; Day 3, 50 mg/kg once daily, oral): 409.2 mm^3
- Tumor volume ([1]; Day 7, 50 mg/kg once daily for 5 days, withdrawn 2 days): 939.9 mm^3
- Tumor volume ([1]; Day 10, 50 mg/kg once daily for 5 days, withdrawn 2 days, then 3 days, oral): 1400.9 mm^3
- Tumor volume ([2]; Day 0 (baseline), 100 mg/kg group): 417.4 mm^3
- Tumor volume ([2]; Day 3, 100 mg/kg once daily, oral): 504.0 mm^3
- Tumor volume ([2]; Day 7, 100 mg/kg once daily for 5 days, withdrawn 2 days): 630.4 mm^3
- Tumor volume ([2]; Day 11, 100 mg/kg once daily for 5 days, withdrawn 2 days, then 4 days, oral): 862.3 mm^3
- Increase in the tumor volume ([3]; 25 mg/kg or 50 mg/kg once daily for 11 days, oral): suppressed in a dose-dependent manner
- Tumor volume ([3]; Day 0 (baseline), 25 mg/kg group): 154.5 mm^3
- Tumor volume [3, 4]: 153.9 mm^3
- Tumor volume ([3]; Day 4, 25 mg/kg once daily, oral): 516.4 mm^3
- Tumor volume ([3]; Day 4, 50 mg/kg once daily, oral): 443.2 mm^3
- Tumor volume ([3]; Day 7, 25 mg/kg once daily, oral): 942.2 mm^3
- Tumor volume ([3]; Day 7, 50 mg/kg once daily, oral): 779.0 mm^3
- Tumor volume ([3]; Day 11, 25 mg/kg once daily for 11 days, oral): 1280.1 mm^3
- Tumor volume ([3]; Day 11, 50 mg/kg once daily for 11 days, oral): 1066.1 mm^3
